Key:
[1] = system: olfactory nerve recovery after bilateral olfactory nerve transection; experiment: Buried food task after bilateral olfactory nerve transection (BNX)
complicated anosmia = conditions: Duncan et al. 1962; cited from earlier work

| Molecule | initial rate of recovery versus BNX-oil ([1]; BNX mice, FIG. 1, food-finding times to post-surgical day 14) | treatment effect on mean food finding times across the recovery period ([1]; BNX mice, post-surgical days 3-14, two-factor repeated measures ANOVA, F(1,15)=5.85, p<0.05, treatment X day interaction p<0.005) | mean post-surgical day on which animals reached criterion for initial recovery (first day of three consecutive days of <180 seconds food-finding time) ([1]; BNX mice, single oral 75 mg/kg atRA in sesame oil one day after surgery, n=9, BNX-oil 10.75±1.28, p<0.05) [post-surgical day] | post-surgical days between which animals reached criterion for initial recovery ([1]; BNX mice, single oral 75 mg/kg atRA in sesame oil, n=9) | recovery time needed to return to pre-surgical level of performance (≦30 seconds) ([1]; BNX mice, single oral 75 mg/kg atRA, no difference from BNX-oil (9.25 days), p=0.761) [days] | food-finding performance of sham-operated animals after surgery ([1]; sham mice, single oral 75 mg/kg atRA, n=4, FIG. 1) | usefulness in treating anosmia associated with skull injuries and fractures with sheering of olfactory nerves (complicated anosmia) |
| --- | --- | --- | --- | --- | --- | --- | --- |
| CC1=C(/C=C/C(C)=C/C=C/C(C)=C/C(=O)O)C(C)(C)CCC1 [RA, all-trans retinoic acid] | faster | significant treatment effect | 7.56±0.67 | 4-11 post-surgical days | 9.8 | performed at pre-surgical levels | – |
| Vitamin A | – | – | – | – | – | – | not to be useful |
